{
  "source": "patent US20240368668A1",
  "about": "“SUBSTRATES AND BIOMARKERS OF ADAMTS7” (The Broad Institute, Inc., priority 2021, published 2024)",
  "test_system": "mouse ADAMTS7",
  "assay": "TMT10 TAILS N-terminomics, HUVEC experiment (process replicates, trypsin/AspN digest)",
  "type": "cell-based, human",
  "conditions": "HUVEC TAILS HC; log fold change of N-terminal peptide, Ad-mADAMTS7 WT over EQ",
  "method_in_brief": "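Full-length mouse ADAMTS7 (WT or E373Q mutant, C-terminal 3xFLAG) or luciferase was transduced via adenovirus, 50 MOI, into HCA-SMC (SMC1, SMC2) or HUVEC. SMC1: pooled media, technical triplicates 400 ug; SMC2: process triplicates 300 ug; HUVEC: process triplicates 200 ug, bFGF2 10 ng/ml.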",
  "data": [
    {"substance": "COL18A1_1505 (LQPPVVQLHDSNPYPR; listed as Homo sapiens)", "values": [
      {"measurement": "logFC.mWT.over.mEQ", "value": 3.88}
    ]},
    {"substance": "LTBP2_79 (VAGLQPVER; listed as Homo sapiens)", "values": [
      {"measurement": "logFC.mWT.over.mEQ", "value": 1.51}
    ]},
    {"substance": "LTBP2_250 (SAAGEGTLAR; listed as Homo sapiens)", "values": [
      {"measurement": "logFC.mWT.over.mEQ", "value": 1.71}
    ]},
    {"substance": "LTBP2_502 (LVENSVETRPPPWLPASPGHSLW; listed as Homo sapiens)", "values": [
      {"measurement": "logFC.mWT.over.mEQ", "value": 2.68}
    ]},
    {"substance": "LTBP3_208 (FLVPLGPGQISA; listed as Homo sapiens)", "values": [
      {"measurement": "logFC.mWT.over.mEQ", "value": 2.14}
    ]},
    {"substance": "MAP4_815 (AVASTGPSSR; listed as Homo sapiens)", "values": [
      {"measurement": "logFC.mWT.over.mEQ", "value": 2.51}
    ]},
    {"substance": "MAP4_816 (VASTGPSSR; listed as Homo sapiens)", "values": [
      {"measurement": "logFC.mWT.over.mEQ", "value": 2.05}
    ]},
    {"substance": "NID1_360 (FHQQHPQVI; listed as Homo sapiens)", "values": [
      {"measurement": "logFC.mWT.over.mEQ", "value": 1.78}
    ]},
    {"substance": "NID2_291 (HSSVPLGR; listed as Homo sapiens)", "values": [
      {"measurement": "logFC.mWT.over.mEQ", "value": 2.90}
    ]},
    {"substance": "NUCB1_317 (FLASTQR; listed as Homo sapiens)", "values": [
      {"measurement": "logFC.mWT.over.mEQ", "value": 2.65}
    ]},
    {"substance": "NUCB1_389 (LQQAVLHMEQR; listed as Homo sapiens)", "values": [
      {"measurement": "logFC.mWT.over.mEQ", "value": 1.54}
    ]},
    {"substance": "SERBP1_56 (QAAAQTNSNAAGKQLR; listed as Homo sapiens)", "values": [
      {"measurement": "logFC.mWT.over.mEQ", "value": 1.43}
    ]},
    {"substance": "SPOCK1_27 (LAGGAGPNHGNFL; listed as Homo sapiens)", "values": [
      {"measurement": "logFC.mWT.over.mEQ", "value": 1.07}
    ]},
    {"substance": "SRGN_59 (LLPGESNKIPR; listed as Homo sapiens)", "values": [
      {"measurement": "logFC.mWT.over.mEQ", "value": 1.17}
    ]},
    {"substance": "THBS2_290 (LSENLKR; listed as Homo sapiens)", "values": [
      {"measurement": "logFC.mWT.over.mEQ", "value": 4.41}
    ]}
  ]
}
